The text below walks through data of patent publication US4780476A, “Azoniaspironortropanol esters as asthma therapeutics and broncholytics” (Madaus GmbH & Co., priority 1985, dated 1988).

SMILES strings stand for the structures. Values after ≈ are worked out from the molar mass of the structure shown. Where two headings read alike, the source gives them in different places.

Assay [1] has as its system awake guinea pig (cholinergically-induced bronchial cramps). In words: inhalative provocation with acetyl-β-methylcholine chloride aerosol on awake guinea pigs (broncholytic/protective action). Type of assay: in vivo. Conditions: for EC50: Cavia porcellus, read-out: EC50, average effective concentration w of acetyl-β-methylcholine chloride (provocation substance) after pre-treatment; for probit analysis reaction % observed: animals reacting with dyspnoea; for probit analysis reaction % calculated: probit regression. The method, then: animal strain: Pirbright white test substance: trospium chloride (MP 194) (M.W. 428) dosage: 3×10^-7 mole ml^-1 kg^-1 mode of administration: intraperitoneally test substance: dehydrotrospium chloride (WG 71) (M.W. 426) […]
reference substance: atropine hydrochloride (Serva; M.W. 325.8) […]
reference substance: isoproterenol (Fluka; M.W. 247.72) dosage: […]
further substances: acetyl-β-methylcholine chloride (Sigma; M.W. 195.7) mode of administration: 0.5 ml. min^-1 by inhalation.
The guinea pigs intended for an experiment are, after an acclimatization time of at least 8 days, subjected twice to an aerosol of 0.1% acetyl-β-methylcholine chloride solution since, as is known from experience, during the first two inhalative provocations, the animals react with more distinct respiratory disturbances than in the case of the subsequent provocations (adaptation). If, in the case of the two inhalation phases, a nonsensitivity (absence of respiratory disturbances) is observed towards the exposure, these animals are excluded from the actual experiment.
For the purpose of aerosol provocation, the guinea pigs are placed individually in an inhalation chamber (see Section 3.6 hereinafter) in which 0.5 ml. of solution per minute are atomized as droplet aerosol by means of a special nozzle (Rhema, Hofheim, Germany). […] With the help of a stopwatch, there is recorded the time from the commencement of inhalation to the appearance of the asphyctic state; the animals are immediately removed from the inhalation chamber and, as a rule, recover in a very short period of time (recovery of consciousness and normalization of breathing). If, within 180 seconds, no dysponea occurs, the inhalation is discontinued.
One aerosol concentration is tested per test day; the time between the individual aerosol provocations is at least 1 week.
The inhalation chamber is a Plexiglass container specially made for this purpose, the lid of which can be closed in an air-tight manner by means of rubber sealing and grip closure means. The internal measurements of the chamber are 285×190×180 mm., which corresponds to a volume of about 9.75 liters. The special nozzle (Rhema, Hofheim, Germany, order No. 504104) is fixed to a recess on the lid and ensures a uniform supply of the available chamber space with the aerosol. The provocation solution is supplied to the nozzle via an infusion pump (Braun, Melsungen, Germany) (0.5 ml./minute) and there atomized with a superpressure of 180 kPa from an attached pressure gas bottle (artificial air, KW-free). For reasons of safety, the aerosol provocation is carried out under a ventilator.
The EC50, as well as the related confidence interval (p>95%), are determined from the probit regression lines of the percentage values (v. supra) provided with weight coefficients after line adaptation by the "maximum likelihood" method (10 iterations). Furthermore, there is examined the adaptation of the lines to the observed data by means of the chiquadrat test. For the evaluation, a calculation programme is commercially available (Olivetti).

Assay [2] concerns T1, isolated tracheal spirals of the guinea pig (Cavia porcellus).
T1 construct: the whole of the trachea is roughly freed beginning from the larynx up to the tracheal bifurcation, removed and transferred; from tissue; host or cells: isolated trachea (spiral strips) of male Pirbright white guinea pigs
Description: anticholinergic effectiveness on isolated tracheal spirals (antagonism against acetyl-β-methylcholine chloride). The settings on record: ratio of maximum agonist effect in presence (EAmB) and absence (EAm) of antagonist. The source says:
(§1) A model for this is the measurement of the anticholinergic effectiveness on isolated tracheal spirals of the guinea pig.
(§2) The test substance used was 3α-benziloyloxynortropane-8-spiro-1'-pyrrolidinium chloride (trospium chloride; MP 194), ipratropium bromide being used as comparison substance.
(§3) There is to be determined the anticholinergic effectiveness of MP 194 in comparison with the reference substance ipratropium bromide on the isolated tracheal spirals of the guinea pig.
(§4) 3.1.1. animal species: guinea pig
(§5) 3.1.2. animal strain: Pirbright white
(§6) 3.3.1. test substance (test antagonist) trospium chloride (MP 194) (M.W. 428)
(§7) 3.3.2. reference substance (reference antagonist) ipratropium bromide (Atrovent) (M.W. 412.4)
(§8) 3.3.3.1. acetyl-β-methylcholine chloride (Sigma) (M.W. 195.7)
(§9) The guinea pig is stunned by a blow on the neck. Subsequently, the whole of the trachea is roughly freed beginning from the larynx up to the tracheal bifurcation, removed and transferred to tempered (37° C.) and carbogenized tyrode solution. After surrounding connective tissue has been removed as far as possible, the preparation is cut up spirally by means of fine scissors at an angle of about 45° and separated into two equal sized sections. After weighing, both preparations are provided proximally and distally with a silk thread. One thread serves for fixing the preparation by means of a loop to the bottom of the bath and the other is connected via a hook with the transducer above the bath vessel.
(§10) Subsequently, the preparations, corresponding to the calibration, are prestressed with about 80 mN and equilibrated from 50-100 minutes. During the equilibration phase, the nutrient solution in the bath vessels is renewed in 15 minute intervals. As soon as the resting muscle tonus of the preparation has stabilized, there takes place the cumulative addition of the agonist, whereby the addition of the next highest concentration first takes place when no further increase of contraction is recognisable (plateau). When the maximum contraction height of the preparation is achieved, the cumulative agonist addition is ended and the preparation is rinsed. After a further equilibration phase (v. supra), the cumulative addition of the agonist is repeated but this time in the presence of the test or reference antagonist.
(§11) 3.6.1. The perfusion part consists of an L-shaped organ bath in the hollow space of which (longer limb) runs a double glass spiral through which the nutrient solution is passed into the actual bath vessel (28 ml. content; shorter limb). This bath vessel is divided into two chambers which are, however, connected together by two transverse connections. […] The inlet chambers as well as the feeding glass spirals are tempered from the outside to 37° C. by a separate liquid circulation. This tempering takes place with the help of a "Colora" ultra-thermostat type K (Colora Messtechnik GmbH, Dusseldorf, Germany) which serves as thermostat and pump. In order, in case of need, always to have available ready-for-use nutrient solution, above the organ bath is provided a double-walled storage container in which the nutrient solution is also tempered and carbogenised. This is connected via a glass stopcock and a polypropylene tube with double glass spiral in the interior of the organ bath.
(§12) 3.6.2. The measurement and recording part includes a transducer (Statham-Universal-Zelle UC-2; Hugo Sachs Elektronic KG, Hugstetten, Germany). By means of a hanging-in weight, a force of 40 mN is produced on the transducer which passes as electrical signal via a connecting cable to a bridge amplifier. The amplification is smoothly so regulated that the force provided corresponds to a constant value on the scale or an analogous value on the millimeter paper of the recorder (dependent upon the amplification; see below). After fixing the organ, the preparation is prestressed to the doubled mark, corresponding to 80 mN. […]

Assay [3] has as its target T2, isolated tracheal spirals of the guinea pig (Cavia porcellus, UniProt H0W1Z3).
T2 construct: the whole of the trachea is roughly freed beginning from the larynx up to the tracheal bifurcation, removed and transferred; from tissue; host or cells: isolated trachea (spiral strips) of male Pirbright white guinea pigs
Described as above. The settings on record: for antagonism against acetyl-β-methylcholine chloride / anticholinergic effectiveness (in words): isolated guinea pig tracheal spirals.
Description: as §1, §2, §3, §4, §5, §6, §7, §8, §9, §10, §11, §12

The mark [4] stands for this setting: acetyl-β-methylcholine chloride w=0.001000, 10 tested (isoproterenol 9), pre-treatment 3×10^-7 mol ml^-1 kg^-1 i.p.
The mark [5] stands for this setting: acetyl-β-methylcholine chloride w=0.001000, pre-treatment 3×10^-7 mol ml^-1 kg^-1 i.p.
[6] abbreviates: acetyl-β-methylcholine chloride w=0.001780, pre-treatment 3×10^-7 mol ml^-1 kg^-1 i.p.
Where [7] appears, read: acetyl-β-methylcholine chloride w=0.001780, trospium chloride 10 tested, dehydrotrospium chloride 9, atropine 9, isoproterenol 8, pre-treatment 3×10^-7 mol ml^-1 kg^-1 i.p.
The mark [8] stands for this setting: acetyl-β-methylcholine chloride w=0.003160, 10 tested (isoproterenol 9), pre-treatment 3×10^-7 mol ml^-1 kg^-1 i.p.
[9] abbreviates: acetyl-β-methylcholine chloride w=0.003160, pre-treatment 3×10^-7 mol ml^-1 kg^-1 i.p.
[10] abbreviates: acetyl-β-methylcholine chloride w=0.005620, 10 tested (isoproterenol 9), pre-treatment 3×10^-7 mol ml^-1 kg^-1 i.p.
Where [11] appears, read: acetyl-β-methylcholine chloride w=0.005620, pre-treatment 3×10^-7 mol ml^-1 kg^-1 i.p.

T2 sequence (H0W1Z3 1-590): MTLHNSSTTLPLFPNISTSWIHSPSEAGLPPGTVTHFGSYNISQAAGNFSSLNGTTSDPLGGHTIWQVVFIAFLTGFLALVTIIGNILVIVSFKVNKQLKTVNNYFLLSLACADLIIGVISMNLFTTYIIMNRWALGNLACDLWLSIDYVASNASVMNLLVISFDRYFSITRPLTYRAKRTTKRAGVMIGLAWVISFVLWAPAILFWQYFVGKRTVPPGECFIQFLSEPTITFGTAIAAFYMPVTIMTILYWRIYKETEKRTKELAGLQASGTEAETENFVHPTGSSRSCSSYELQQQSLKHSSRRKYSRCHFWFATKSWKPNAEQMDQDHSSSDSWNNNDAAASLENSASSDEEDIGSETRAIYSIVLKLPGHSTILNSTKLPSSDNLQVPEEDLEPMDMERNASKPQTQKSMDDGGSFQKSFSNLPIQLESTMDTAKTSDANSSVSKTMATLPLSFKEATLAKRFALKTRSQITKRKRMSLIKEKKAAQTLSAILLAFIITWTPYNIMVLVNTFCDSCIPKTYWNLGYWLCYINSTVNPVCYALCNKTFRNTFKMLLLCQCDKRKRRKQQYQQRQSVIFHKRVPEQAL
T1 sequence (H0W1Z3 1-590): as above

With `O=C(OC1CC2CCC(C1)[N+]21CC=CC1)C(O)(c1ccccc1)c1ccccc1` (stereo not drawn) [dehydrotrospium chloride, 3α-benziloyloxynortropane-8-spiro-1'-(3'-pyrrolinium)chloride], the “broncholytic effectiveness compared with atropine and isoproterenol (in words)” value in assay [1] (15 min after i.p. administration, equimolar dosages) is “comparable with or superior to the well known parasympatholytics atropine and the β-sympathomimetic isoproterenol”. Moreover, the EC50 in assay [1] is 1730 µg/mL. For the same molecule, the “number of animals reacting” value came to 3 in assay [1] (setting [4]), 6 in assay [1] (setting [7]), 6 in assay [1] (setting [8]) and 7 in assay [1] (setting [10]). The “probit analysis reaction % observed” value in assay [1] (setting [5]) was 30.00%; in assay [1] (setting [6]), 66.67%; in assay [1] (setting [9]) it was 60.00%; in assay [1] (setting [11]), 70.00%. The “probit analysis reaction % calculated” value is given as 38.74% in assay [1] (setting [5]), 50.60% in assay [1] (setting [6]), 62.35% in assay [1] (setting [9]) and 73.08% in assay [1] (setting [11]). Besides, the “broncholytic effect (in words)” value in assay [1] (intraperitoneal, cholinergically-induced bronchial cramps, awake guinea pig) is “outstanding broncholytic effect”.
For `CC(C)[N+]1(C)C2CCC1CC(OC(=O)C(CO)c1ccccc1)C2` (stereo not drawn) [ipratropium bromide, reference compound], the “EAmB/EAm ± s” value in assay [2] came to 1.10 ± 0.24. Also, in assay [3] (antagonism against acetyl-β-methylcholine chloride, read-out: pA2 ± s (converted)), the Kb is 0.49 nM. Further, the “quality of the antagonism (in words)” value in assay [3] (comparison of maximum effects in absence and presence of the antagonist) is given as “competitive antagonism”. The “antagonism against acetyl-β-methylcholine chloride / anticholinergic effectiveness (in words)” value is reported as “comparable, dosage-dependent antagonism” in assay [3] and “dosage dependent antagonism” in assay [3] (listed as epratropium bromide).
With `CC(C)NCC(O)c1ccc(O)c(O)c1` (stereo not drawn) [isoproterenol, reference compound], the EC50 in assay [1] (pre-treatment 3×10^-7 mol ml^-1 kg^-1 i.p., 15 min before inhalation, w of acetyl-β-methylcholine chloride in atomised solution, control animals w=0.000539, higher = more protection) was 1450 µg/mL (≈ 6.86 mM). In addition, the “number of animals reacting” value in assay [1] (setting [4]) turned out to be 3; in assay [1] (setting [7]), 5; in assay [1] (setting [8]) it was 7; in assay [1] (setting [10]) it was 8. Further, the “probit analysis reaction % observed” value in assay [1] (setting [5]) worked out at 33.33%; in assay [1] (setting [6]), 62.50%; in assay [1] (setting [9]), 77.78%; in assay [1] (setting [11]), 88.89%. Further, the “probit analysis reaction % calculated” value in assay [1] (setting [5]) was 36.21%; in assay [1] (setting [6]), 57.88%; in assay [1] (setting [9]), 77.28%; in assay [1] (setting [11]), 90.30%.
